# Source: ChEMBL document CHEMBL6103589, “Synthesis and evaluation of novel ebselen derivatives as urease inhibitors for combating Helicobacter pylori infections” (Eur J Med Chem, 2025)
# Calls of active or inactive are those of the source. The calls are words filed in the database; no cut-off is given here.
# Legend:
# [1] = test system: Helicobacter pylori; assay: Protection against Helicobacter pylori ATCC 43504 infected (MOI 400:1) in human GES1 cell injury model assessed as reduction in cell apoptosis rate at 50 uM pre-treated for 2 hrs followed by bacterial infection measured after 6 hrs by Annexin/V-FITC staining based flow cytometry analysis (reference value: 56.03%); format: functional; design: scale not given: the % may be the effect or the level left; settings: time 8 hrs
# [2] = test system: Helicobacter pylori; assay: Protection against Helicobacter pylori ATCC 43504 infected (MOI 25:1) in human GES1 cell injury model assessed as late apoptotic cells at 25 uM pre-treated for 2 hrs followed by bacterial infection measured after 6 hrs by Annexin/V-FITC staining based flow cytometry analysis (reference value: 0.31%); format: functional; settings: time 8 hrs
# [3] = test system: Helicobacter pylori; assay: Protection against Helicobacter pylori ATCC 43504 infected (MOI 25:1) in human GES1 cell injury model assessed as viable cells at 50 uM pre-treated for 2 hrs followed by bacterial infection measured after 6 hrs by Annexin/V-FITC staining based flow cytometry analysis (reference value: 89.14%); format: functional; settings: time 8 hrs
# [4] = test system: Helicobacter pylori; assay: Protection against Helicobacter pylori ATCC 43504 infected (MOI 50:1) in human GES1 cell injury model assessed as viable cells at 25 uM pre-treated for 2 hrs measured after 6 hrs by Annexin/V-FITC staining based flow cytometry analysis (reference value: 81.14%); format: functional; settings: time 8 hrs
# [5] = test system: Helicobacter pylori; assay: Protection against Helicobacter pylori ATCC 43504 infected (MOI 50:1) in human GES1 cell injury model assessed as late apoptotic cells at 25 uM pre-treated for 2 hrs measured after 6 hrs by Annexin/V-FITC staining based flow cytometry analysis (reference value: 2.85%); format: functional; settings: time 8 hrs
# [6] = test system: Helicobacter pylori; assay: Protection against Helicobacter pylori ATCC 43504 infected (MOI 50:1) in human GES1 cell injury model assessed as viable cells at 50 uM pre-treated for 2 hrs followed by bacterial infection measured after 6 hrs by Annexin/V-FITC staining based flow cytometry analysis (reference value: 81.14%); format: functional; settings: time 8 hrs
# [7] = test system: Helicobacter pylori; assay: Protection against Helicobacter pylori ATCC 43504 infected (MOI 50:1) in human GES1 cell injury model assessed as necrotic cells at 50 uM pre-treated for 2 hrs followed by bacterial infection measured after 6 hrs by Annexin/V-FITC staining based flow cytometry analysis (reference value: 2.85%); format: functional; settings: time 8 hrs
# [8] = test system: Helicobacter pylori; assay: Protection against Helicobacter pylori ATCC 43504 infected (MOI 100:1) in human GES1 cell injury model assessed as early apoptotic cells at 25 uM pre-treated for 2 hrs followed by bacterial infection measured after 6 hrs by Annexin/V-FITC staining based flow cytometry analysis (reference value: 24.66 %); format: functional; settings: time 8 hrs
# [9] = test system: Helicobacter pylori; assay: Protection against Helicobacter pylori ATCC 43504 infected (MOI 100:1) in human GES1 cell injury model assessed as late apoptotic cells at 50 uM pre-treated for 2 hrs followed by bacterial infection measured after 6 hrs by Annexin/V-FITC staining based flow cytometry analysis (reference value: 4.16%); format: functional; settings: time 8 hrs
# [10] = test system: Helicobacter pylori; assay: Protection against Helicobacter pylori ATCC 43504 infected (MOI 300:1) in human GES1 cell injury model assessed as early apoptotic cells at 25 uM pre-treated for 2 hrs followed by bacterial infection measured after 6 hrs by Annexin/V-FITC staining based flow cytometry analysis (reference value: 34.57 %); format: functional; settings: time 8 hrs
# [11] = test system: Helicobacter pylori; assay: Protection against Helicobacter pylori ATCC 43504 infected (MOI 300:1) in human GES1 cell injury model assessed as viable cells at 50 uM pre-treated for 2 hrs followed by bacterial infection measured after 6 hrs by Annexin/V-FITC staining based flow cytometry analysis (reference value: 47.43%); format: functional; settings: time 8 hrs
# [12] = test system: Helicobacter pylori; assay: Protection against Helicobacter pylori ATCC 43504 infected (MOI 300:1) in human GES1 cell injury model assessed as early apoptotic cells at 50 uM pre-treated for 2 hrs followed by bacterial infection measured after 6 hrs by Annexin/V-FITC staining based flow cytometry analysis (reference value: 34.57 %); format: functional; settings: time 8 hrs
# [13] = test system: Helicobacter pylori; assay: Protection against Helicobacter pylori ATCC 43504 infected (MOI 300:1) in human GES1 cell injury model assessed as necrotic cells at 50 uM pre-treated for 2 hrs followed by bacterial infection measured after 6 hrs by Annexin/V-FITC staining based flow cytometry analysis (reference value: 6.05%); format: functional; settings: time 8 hrs
# [14] = test system: Helicobacter pylori; assay: Protection against Helicobacter pylori ATCC 43504 infected (MOI 400:1) in human GES1 cell injury model assessed as viable cells at 25 uM pre-treated for 2 hrs followed by bacterial infection measured after 6 hrs by Annexin/V-FITC staining based flow cytometry analysis (reference value: 37.61%); format: functional; settings: time 8 hrs
# [15] = test system: Helicobacter pylori; assay: Protection against Helicobacter pylori ATCC 43504 infected (MOI 400:1) in human GES1 cell injury model assessed as late apoptotic cells at 50 uM pre-treated for 2 hrs followed by bacterial infection measured after 6 hrs by Annexin/V-FITC staining based flow cytometry analysis (reference value: 13.62%); format: functional; settings: time 8 hrs
# [16] = test system: Helicobacter pylori; assay: Protection against Helicobacter pylori ATCC 43504 infected (MOI 400:1) in human GES1 cell injury model assessed as necrotic cells at 50 uM pre-treated for 2 hrs followed by bacterial infection measured after 6 hrs by Annexin/V-FITC staining based flow cytometry analysis (reference value: 6.36%); format: functional; settings: time 8 hrs
# [17] = test system: GES1; assay: Induction of ROS generation in human GES1 cells infected (25 to 400:1 MOI) with Helicobacter pylori ATCC 43504 assessed as increase in fluorescence intensity at 25 to 50 uM by DCFH-DA based Immunofluorescence analysis; format: functional, cell-based; settings: dose 25-50 µM
# [18] = test system: GES1; assay: Induction of ROS generation in human GES1 cells infected (25 to 400:1 MOI) with Helicobacter pylori ATCC 43504 assessed as decrease in fluorescence intensity at 25 to 50 uM by DCFH-DA based Immunofluorescence analysis; format: functional, cell-based; settings: dose 25-50 µM
# [19] = test system: GES1; assay: Induction of DNA damage in human GES1 cells infected (25 to 400:1 MOI) with Helicobacter pylori ATCC 43504 assessed as decrease in gammaH2AX levels by measuring fluorescence intensity at 25 to 50 uM by SP8 laser confocal microscopic analysis; format: functional, cell-based; settings: dose 25-50 µM
# [20] = test system: Helicobacter pylori; assay: In vivo protection against Helicobacter pylori ATCC 43504 infected in BALB/c mouse gastric mucosa model assessed as appearance of intact epithelium at high dose administered once a day for 2 weeks by HE staining based analysis; format: functional, organism-based
# [21] = test system: Helicobacter pylori; assay: In vivo protection against Helicobacter pylori ATCC 43504 infected in BALB/c mouse gastric mucosa model assessed as effect on hyperplasia at low dose administered once a day for 2 weeks by HE staining based analysis; format: functional, organism-based
# [22] = Acute toxicity in BALB/c mouse assessed as pathological abnormality in spleen at 1 g/Kg, po single dose administered for 7 days by HE staining based analysis; format: organism-based; settings: in vivo, 1000 mg/kg, 168 h, time 7 day
# [23] = Acute toxicity in BALB/c mouse assessed as change in stool consistency at 1 g/Kg, po single dose administered for 7 days; format: organism-based; settings: in vivo, 1000 mg/kg, 168 h, time 7 day
# [24] = Acute toxicity in BALB/c mouse assessed as pathological abnormality in heart at 1 g/Kg, po single dose administered for 7 days by HE staining based analysis; format: organism-based; settings: in vivo, 1000 mg/kg, 168 h, time 7 day
# [25] = Acute toxicity in BALB/c mouse assessed as pathological abnormality in liver at 1 g/Kg, po single dose administered for 7 days by HE staining based analysis; format: organism-based; settings: in vivo, 1000 mg/kg, 168 h, time 7 day
# [26] = test system: GES1; assay: Cytotoxicity against human GES1 cells at upto 75 uM by MTT assay; format: toxicity, cell-based; settings: ges1, 75 µM
compound,measurement,setting,value
O=C(Oc1n[se]c2ccccc12)c1cccc(F)c1,Activity,[1],47.7%
same,Activity,[2],0.02%
same,Activity,[3],99.06%
same,Activity,[4],95.32%
same,Activity,[5],0.05%
same,Activity,[6],97.06%
same,Activity,[7],0.02%
same,Activity,[8],7.64%
same,Activity,[9],0.23%
same,Activity,[10],15.81%
same,Activity,[11],92.33%
same,Activity,[12],3.14%
same,Activity,[13],2.01%
same,Activity,[14],82.13%
same,Activity,[15],0.72%
same,Activity,[16],2.26%
same,Activity,[17],Active
same,Activity,[18],Active
same,Activity,[19],Active
same,Activity,[20],Active
same,Activity,[21],inactive
same,Activity,[22],Non-toxic
same,Activity,[23],Non-toxic
same,Activity,[24],Non-toxic
same,Activity,[25],Non-toxic
same,Activity,[26],Non-toxic
